What was measured:
U343mga cells [1] = assay: Cell uptake of boron compounds (Example 2); type: cell-based, human; conditions: for boron content expressed as a function of the total cellular protein, Trial 1 / boron content expressed as a function of the total cellular protein, Trial 2: 6 hours incubation, 5×10^−4 mol/L boron; for boron content expressed as a function of the total cellular protein, Trial 1: 7.2 μg boron/mL media; for boron content expressed as a function of the total cellular protein, Trial 2: 7.7 μg boron/mL media
Protocol: (§1) An in vitro test of the Phe-BF3 of the Example 1 uses four different human-derived tumor cell lines U343mga, human liver cancer cell line Hep3B, human breast cancer cell line MCF7 and human Sarcoma cell line 4SS. Cells were plated on uncoated tissue culture dishes and incubated at 37° C. in an incubator with humidified air equilibrated with 5% CO2 (the medium was supplemented with 10% FCS and PEST (Penicillin 100 IU/mL and streptomycin […])). For cell passage, cells were trypsinized with trypsin-EDTA (phosphate buffered saline (PBS) with 0.25% trypsin and 0.02% EDTA, no calcium and magnesium).
U343mga cells were plated on Petri dishes at a cell density of 75% and incubated for 6 hours with 1,4-dihydroxyborylphenylalanine (BPA) or Phe-BF3 dissolved in tissue culture medium. Both boron-containing compounds were added at an equimolar concentration relative to the boron content (5×10^−4 mol/L boron) and dissolved in tissue culture medium. Incubation was terminated by removing the boron containing tissue culture medium and adding cold phosphate buffered saline solution (PBS buffer) in order to wash away excess medium from the cells. Cells were immediately harvested by scooping off from the petri dishes using rubber policeman, and collected in cold PBS and pelleted by centrifugation.
Total protein analysis was performed on cell samples according to the Bradford standard procedure. The precipitated cells were subjected to boron analysis by DC-plasmon atomic emission spectroscopy (DCP-AES). The sample (50-130 mg) was digested with sulfuric acid/nitric acid (1/1) at 60° C. Triton X-100 and water were added to give concentrations of 50 mg tissue/mL, 15% total acid v/v, and 5% Triton X-100 v/v. The boron concentration is based on known control sample.

U343mga cells [2] = assay: Intracellular retention of boron (Example 4); type: cell-based, human; conditions: for Boron content in U343mga cells, 0 h after removal of the boron-containing medium / Boron content in U343mga cells, 2 h after removal of the boron-containing medium / Boron content in U343mga cells, 7 h after removal of the boron-containing medium: 18 hours incubation, 5×10^−4 mol/L boron
Protocol: U343mga cells were plated on Petri dishes at a cell density of 75% and incubated for 18 hours with 1,4-dihydroxyboron-phenylalanine (BPA) or Phe-BF3 in tissue culture medium. Both boron compounds were added to the tissue culture medium at equimolar concentrations relative to the boron content (5×10^−4 mol/L boron). The incubation was terminated by replacing the boron-containing medium with a boron-free medium. Cell samples were taken at time points 0, 2 and 7 hours, respectively, where the 0 time point represented the time point when the incubation with the boron compound reached just 18 hours.
The cells were washed with cold PBS and immediately harvested by scooping off from the petri dish using rubber policeman, and collected in cold PBS and pelleted by centrifugation. The cell pellets were analyzed for total protein and boron content as described above. With intracellular uptake, the compound of formula (I) retained in the tumor cells was 50% of the total uptake at 7 h after the complete consumption of Ia in the medium.

[3] = tested on: human Sarcoma cell line 4SS; assay: Uptake of Phe-BF3 by different tumor cells (Example 3); type: cell-based; conditions: 6 hours
Protocol: as §1
(§2) Four human-derived, different tumor cell lines: U343mga, Hep3B, MCF7, and 4SS were plated on Petri dishes at 40-50% (low) and 90-100% (high) cell densities, and incubated with Phe-BF3 in tissue culture as described above for 6 hours. Incubation was terminated by removing the boron-containing media and adding cold PBS buffer to wash excess media from the cells. Cells were immediately harvested by scooping off from the petri dishes using rubber policeman, and collected in cold PBS and pelleted by centrifugation. Total protein analysis was performed on cell samples according to the Bradford standard procedure (as described above).

[4] = tested on: human liver cancer cell line Hep3B; assay: as above; type: cell-based; conditions: 6 hours
Protocol: as §1, §2

[5] = tested on: human breast cancer cell line MCF7; assay: as above; type: cell-based; conditions: 6 hours
Protocol: as §1, §2

U343mga = assay: as above; type: cell-based, human
Protocol: as §1, §2

[6] = tested on: mouse fibroblast L-929 cells; assay: Cytotoxicity study, MTT colorimetry (Example 5); type: cell-based; conditions: for Relative cell proliferation RGR: 5 mmol/L, MTT
Protocol: The cell culture fluid containing the peptide bovine serum was incubated at 37 C for 24 hours. The passage cultured mouse fibroblast L-929 cells were used to prepare a cell suspension of 1×10^5 cells/mL, and the cell suspension was seeded on a 96-well cell culture plate (100 μl/well) and cultured in a carbon dioxide incubator at 37° C. for 24 hours. After the cells adhere to the wall, the supernatant was removed, the control solution (in absence of compound Ia) was added, and the culture solution of the test group (Phe-BF3 concentration of 5 mmol/L) was exchanged, and the culture was continued in the carbon dioxide incubator at 37° C. After 2 days, MTT solution was added to continue culture for 4 hours. The original solution was aspirated and DMSO was added and shaken for 10 min. The absorbance value was measured with an enzyme-linked immunometric instrument at a wavelength of 630 nm, and the relative proliferation rate (RGR) of the cells was calculated according to the absorbance according to the formula.

Row | Compound | boron content expressed as a function of the total cellular protein, Trial 1 (U343mga cells [1]) | boron content expressed as a function of the total cellular protein, Trial 2 (U343mga cells [1]) | Boron content in U343mga cells, 0 h after removal of the boron-containing medium (U343mga cells [2]) [μg boron/g cell pellet] | Boron content in U343mga cells, 2 h after removal of the boron-containing medium (U343mga cells [2]) [μg boron/g cell pellet] | Boron content in U343mga cells, 7 h after removal of the boron-containing medium (U343mga cells [2]) [μg boron/g cell pellet] | boron content as a function of the total cellular protein, low cell density ([3]; 40-50% cell density) [μg boron/g cell protein] | boron content as a function of the total cellular protein, high cell density ([3]; 90-100% cell density) [μg boron/g cell protein] | boron content as a function of the total cellular protein, low cell density ([4]; 40-50% cell density) [μg boron/g cell protein] | boron content as a function of the total cellular protein, high cell density ([4]; 90-100% cell density) [μg boron/g cell protein] | boron content as a function of the total cellular protein, low cell density ([5]; MCF7, 40-50% cell density) [μg boron/g cell protein] | boron content as a function of the total cellular protein, high cell density ([5]; MCF7, 90-100% cell density) [μg boron/g cell protein] | boron content as a function of the total cellular protein, low cell density (U343mga; U343mga, 40-50% cell density, 6 hours) [μg boron/g cell protein] | boron content as a function of the total cellular protein, high cell density (U343mga; U343mga, 90-100% cell density, 6 hours) [μg boron/g cell protein] | efficiency as boron carrier (U343mga; all four human tumor cell lines at low and high cell densities) | Relative cell proliferation RGR ([6]; 2 days) [%] | Relative cell proliferation RGR ([6]; 7 days) [%] | cytotoxicity assessment ([6]; graded by RGR (Table 5)) | boron uptake compared with BPA (U343mga cells [1]; 6 hours) | tumor cell uptake, accumulation, and retention compared with BPA (U343mga cells [2]; summary of Examples 2-4, in vitro)
1 | N[C@@H](CC1(BO)C=CC(BO)=CC1)C(=O)O (stereo partly drawn) [BPA, 1,4-dihydroxyborylphenylalanine, reference compound] | 62 | 39 | 0.072 | 0 | 0 | – | – | – | – | – | – | – | – | – | – | – | – | – | –
2 | [NH3+]C(Cc1ccccc1)[B-](F)(F)F (stereo not drawn) [Phe-BF3] | 549 | 421 | 0.83 | 0.56 | 0.41 | 255 | 343 | 149 | 207 | 101 | 167 | 102 | 178 | highly efficient boron carrier | 123 | 102 | no signs of toxicity | better than boron phenylalanine (BPA) in boron uptake | superior to BPA in tumor cell uptake, accumulation, and retention

— US20190381337A1, “BORON NEUTRON CAPTURE THERAPY SYSTEM” (NEUBORON MEDTECH LTD., priority 2016, published 2019)
